This is an account of results in patent publication US20260224708A1, “CONJUGATE COMPOUNDS AND COMPOSITIONS” (REZUBIO PHARMACEUTICALS CO., LTD, priority 2023, published 2026).

Structures can show the parent of a compound that is named as a salt.

A short description of data set [1]: Pharmacokinetics in mice, IV and PO. The format is in vivo. The following applies: mouse, plasma, male ICR (CD-1) mice. The procedure:
Male ICR (CD-1) mice at around 4-6 weeks with body weight of around 25 grams (n=3) were purchased from VT-River (Zhejiang, China). After 1-week acclimation, animals were dosed with exemplary compounds intravenously at 1 mpk or orally at 10 mpk (0.5% methylcellulose in PBS as vehicle for both routes of administration). Blood samples (30 μL) were collected via saphenous vein puncture at 5 (IV only), 15, 30, 60, 120, 240, 480, and 1440 min post dose. The blood samples were saved in 0.5 M K2EDTA coated tubes and centrifuged at 4,600 rpm at 4° C. for 5 min. Plasma samples were collected and stored in −80° C. till PK analysis.
Take 10 μL of K2EDTA-treated plasma samples of CD-1 mice, add 200 μL of precipitation solution with internal standard (5 ng/mL Terfenadine in MeOH/ACN), mix well by vortexing for 1 min at room temperature followed by centrifuge at 4° C. and 4000 rpm for 15 min. Save the supernatant as injection for LC-MS/MS quantification of exemplary compounds in plasma samples of mice.
Establish a standard curve before and after each analytical batch, accompanied by quality controls of low, medium, and high concentrations. The number of quality control samples is not less than 6 and should be equal to or more than the number of samples of each batch, and interspersed in sample measurement. Standard curve and quality control samples of each batch must meet the acceptance criteria.

The target in data set [2] is T1, GPR40 (Homo sapiens, UniProt O14842).
T1 construct: expressed in transfected cells
T1 sequence (O14842 whole entry): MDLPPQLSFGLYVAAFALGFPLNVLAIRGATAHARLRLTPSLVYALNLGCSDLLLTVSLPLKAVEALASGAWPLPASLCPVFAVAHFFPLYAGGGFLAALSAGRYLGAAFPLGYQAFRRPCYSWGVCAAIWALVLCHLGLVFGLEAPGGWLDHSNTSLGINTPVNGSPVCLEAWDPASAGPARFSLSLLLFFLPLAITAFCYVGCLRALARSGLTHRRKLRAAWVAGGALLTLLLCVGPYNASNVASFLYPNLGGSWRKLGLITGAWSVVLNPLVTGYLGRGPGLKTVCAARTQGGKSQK
The data set is described as follows: IP1 accumulation assay in HEK293 cells stably expressing GPR40. Type of data set: cell-based. The method, then:
IP1 accumulation assay was used to evaluate the potency of compounds. HEK293 cells stably expressing GPR40 were cultured in 5% CO2 incubator (ThermoFisher) in maintenance media (Dulbecco's modified Eagle's medium with 4.5 g/L of glucose, 10% fetal bovine serum, 100 μg/mL Hygromycin, and Penicillin (100 U/mL)/Streptomycin (100 μg/mL)) till 100% confluency. Cells were harvested freshly, spun down at 300×g for 5 min, and resuspended in pre-warmed 1×stimulant buffer from Cisbio IP-One HTRF Detection kit (Cisbio). Cell density was adjusted to 2.0×10^6 cells/mL. DMSO was used as blank control and AMG-1638 (CAS #: 1142214-62-7) as positive control. Compounds were prepared at 10 mM in DMSO and 5 nL of 3×serially diluted compounds (10 concentrations) were added to each well of the 384-LDV assay plate (Corning) by using ECHO 550 (Labcyte). Five μL of cells in suspension were transferred into each well by using Multidrop Combi Reagent Dispenser (ThermoFisher). Assay plate was then sealed and incubated at 37° C. for 2 hours. IP-d2 reagent and anti-IP1 reagent were prepared following the manual (Cisbio). Five μL of IP1-d2 and then 5 μL of anti-IP1 antibody was added to each well sequentially. Assay plate was incubated at room temperature for 60 min and then read at 665 nm/615 nm on an Envision plate reader (PerkinElmer). […] Dose curve was fitted and EC50 of each compound was calculated by using XLFit.

Consider `COc1ccc(C(=O)N(CC(C)(C)CCCCCCCCCCCCCCCCCCCC(=O)NCC[N+](C)(CC(=O)NCCN)CC(=O)NCCN)c2cccc(C)n2)c(N2CCC(COc3cc([C@@H](CC(=O)O)C4CC4)ccn3)CC2)c1` [Example 4], for which the clearance in data set [1] (1 mg/kg, IV 1 mpk) amounted to 0.22 mL/min/kg.

In data set [1] (1 mg/kg, IV 1 mpk), `COc1ccc(C(=O)N(CC(C)(C)CCCCCCCCCCCCCCCCCC(=O)NCCC[N+](C)(CC(=O)NCCN)CC(=O)NCCN)c2cccc(C)n2)c(N2CCC(COc3cc([C@@H](CC(=O)O)C4CC4)ccn3)CC2)c1` [Example 12] yielded a clearance of 0.15 mL/min/kg. In turn, `COc1ccc(C(=O)N(CC(C)(C)CCCCCCCCCCCCCCCCCCCC(=O)NCCCN(CC(=O)O)CC(=O)O)c2cccc(C)n2)c(N2CCC(COc3cc([C@@H](CC(=O)O)C4CC4)ccn3)CC2)c1` [Example 13] had a clearance in data set [1] (1 mg/kg, IV 1 mpk) of 0.14 mL/min/kg. Consider `COc1ccc(C(=O)N(CC(C)(C)CCCCCCCCCCCCCCCCCCCC(=O)NCCC[N+](C)(CC(=O)[O-])CC(=O)O)c2cccc(C)n2)c(N2CCC(COc3cc([C@@H](CC(=O)O)C4CC4)ccn3)CC2)c1` (stereo partly drawn) [Example 14], for which, in data set [1] (1 mg/kg, IV 1 mpk), the clearance came to 0.2 mL/min/kg. A word on the EC50: it is the concentration that produces a half-maximal response. Low readings indicate greater potency, high ones weaker potency. Broadly, the AUC is the area under the concentration-time curve, a measure of exposure. Read a low AUC as less exposure. As usually defined, the half-life is the time needed for the level to fall by half in the phase considered. As usually defined, the Cmax is the highest concentration seen after dosing. The term Tmax denotes the time at which the peak concentration occurs. As usually defined, the bioavailability is the share of a dose that reaches the circulation, judged against a reference dose that is usually intravenous. The low end stands for poor availability, the high end for good availability. In the case of `COc1ccc(C(=O)N(CC(C)(C)CCCCCCCCCCCCCCCCCC(=O)NCC[N+](C)(CCCC(=O)NCCN)CCCC(=O)NCCN)c2cccc(C)n2)c(N2CCC(COc3cc([C@@H](CC(=O)O)C4CC4)ccn3)CC2)c1` [Example 17], the concentration for a half-maximal effect (EC50) in data set [2] worked out at 0.11 nM. In data set [1] (1 mg/kg, IV 1 mpk), this compound had an AUC of 104 µM·h, a clearance of 0.1 mL/min/kg and a half-life of 10.5 h. Further, in data set [1] (10 mg/kg, PO 10 mpk), the highest level (Cmax) was 238 nM and the Tmax is 6.7 h. In data set [1] (10 mg/kg, PO 10 mpk, oral bioavailability), the bioavailability came to 0.41%. In data set [1] (1 mg/kg, IV 1 mpk), `COc1ccc(C(=O)N(CC(C)(C)CCCCCCCCCCCCCCCCCC(=O)NCCC[N+]23CCN(CC2)CC3)c2cccc(C)n2)c(N2CCC(COc3cc([C@@H](CC(=O)O)C4CC4)ccn3)CC2)c1` [Example 18, (S)-1-(3-(20-(2-(4-(((4-(2-carboxy-1-cyclopropylethyl)pyridin-2-yl)oxy)methyl)piperidin-1-yl)-4-methoxy-N-(6-methylpyridin-2-yl)benzamido)-19,19-dimethylicosanamido)propyl)-1,4-diazabicyclo[2.2.2]octan-1-ium TFA salt] yielded a clearance of 0.32 mL/min/kg. Still for that read-out and setting: the figure for `COc1ccc(C(=O)N(CC(C)(C)CCCCCCCCCCCCCCCCCC(=O)NCCC[N+]23CC[N+](C)(CC2)CC3)c2cccc(C)n2)c(N2CCC(COc3cc([C@@H](CC(=O)O)C4CC4)ccn3)CC2)c1` [Example 19] is 0.43 mL/min/kg. On the same count and under the same terms, the figure for `COc1ccc(C(=O)N(CC(C)(C)CCCCCCCCCCCCCCCCCCCCCC[N+]23CCN(CC2)CC3)c2cccc(C)n2)c(N2CCC(COc3cc([C@@H](CC(=O)O)C4CC4)ccn3)CC2)c1` [Example 21, (S)-1-(24-(2-(4-(((4-(2-carboxy-1-cyclopropylethyl)pyridin-2-yl)oxy)methyl)piperidin-1-yl)-4-methoxy-N-(6-methylpyridin-2-yl)benzamido)-23,23-dimethyltetracosyl)-1,4-diazabicyclo[2.2.2]octan-1-ium] is 0.67 mL/min/kg. For the compound `COc1ccc(C(=O)N(CC(C)(C)CCn2cc(CCCCCCCCCCCCCCCCCC(=O)NCCC[N+]34CCN(CC3)CC4)nn2)c2cccc(C)n2)c(N2CCC(COc3cc([C@@H](CC(=O)O)C4CC4)ccn3)CC2)c1` [Example 34], a half-maximal response in data set [2] (EC50) required 0.32 nM.
